The values that follow come from patent US10086054B2, “RM2 antigens and use thereof” (ACADEMIA SINICA, priority 2013, dated 2018).

The test system of assay [1] is RM2 (a mouse IgM anti-RM2 monoclonal antibody). Description: Glycan array binding specificity of monoclonal antibody RM2. To be noted: glycans printed at 100 μM; FIG. 11. Here is the method: An expanded glycan array containing the synthesized hexasaccharide 1 and its analogs along with the other ninety glycans are incorporated to a glycan array for testing (Figure S4). All glycans were directly immobilized onto NHS-coated glass slides by taking an aliquot from a stock solution of sugar at a fixed concentration (100 μM). The assay involved an initial treatment with RM2 (a mouse IgM anti-RM2 monoclonal antibody, a kind gift from Prof. Saito), followed by incubation with a fluorescein-tagged anti mouse IgM secondary antibody against its primary antibody. After one hour incubation, the slides were washed with ddH2O twice and scanned to show the binding specificity of the antibody to printed oligosaccharides. […] To determine the dissociation the dissociation constants of RM2 and truncated analogs on the surface interacting with the antibody in a multivalent manner, the direct measurement method was experimented (Liang, P. H.; Wang, S. K.; Wong, C. H. J. Am. Chem. Soc. 2007, 129, 11177), using different concentrations of antibodies and printed sugars. […] Using the same method, the KD,surf values were determined for the truncated RM2 analog 29 interacting with the antibody (FIG. 21 and Table S2). […]

The test system of another assay is monoclonal RM2 antibody. Description: Determination of surface dissociation constant (KD,surf) on glycan microarray. Format: binding, mouse. Here is the method: An expanded glycan array containing the synthesized hexasaccharide 1 and its analogs along with the other ninety glycans are incorporated to a glycan array for testing (Figure S4). All glycans were directly immobilized onto NHS-coated glass slides by taking an aliquot from a stock solution of sugar at a fixed concentration (100 μM). The assay involved an initial treatment with RM2 (a mouse IgM anti-RM2 monoclonal antibody, a kind gift from Prof. Saito), followed by incubation with a fluorescein-tagged anti mouse IgM secondary antibody against its primary antibody. After one hour incubation, the slides were washed with ddH2O twice and scanned to show the binding specificity of the antibody to printed oligosaccharides. […] To determine the dissociation the dissociation constants of RM2 and truncated analogs on the surface interacting with the antibody in a multivalent manner, the direct measurement method was experimented (Liang, P. H.; Wang, S. K.; Wong, C. H. J. Am. Chem. Soc. 2007, 129, 11177), using different concentrations of antibodies and printed sugars. […] At the printing concentrations from 100 μM to 6.25 μM, however, it was observed that the KD,surf values measured were narrowly distributed from the individual curves (FIG. 20 and Table 1). Using the same method, the KD,surf values were determined for the truncated RM2 analog 29 interacting with the antibody (FIG. 21 and Table S2).
The slides were spotted with solution of RM2 1 and 29 with concentrations 100, 50, 25, 12.5, and 6.25 μM 2 rows from top to bottom with 5 replicates horizontally placed in each grids. The glycan microarray was blocked with 50 mM ethanolamine for 1 h at 0° C. and washed three times with PBST buffer before use. The monoclonal RM2 antibody was diluted with 3% BSA/PBST buffer (PBST buffer: PBS and 0.05% Tween-20, pH 7.4). Next, Cy3-conjugated goat anti-mouse IgM antibody was added into the diluted solution to precomplex with primary antibody. The precomplexed solution was applied to each well and incubated at 0° C. for 1 h in the dark. Finally, the slides were washed by PBST washing buffer and ddH2O in sequence. The slides were spin-dried for 5 minutes before scanned at 635 nm with a microarray fluorescence chip reader (GenePix 4300A; Molecular Devices Corporation). Scanned images were analyzed with GenePix Pro-6.0 analysis software (Axon Instruments, Union City, Calif., USA).

Assay [2] relates to induced IgG antibodies by DT-RM4.7/C34 vaccine. Description: Specificity analysis of antibodies induced by DT-RM4.7/C34 vaccine on glycan microarray. To be noted: sera of DT-RM4.7/C34-immunized mice; for binding of induced IgG antibodies to glycan: FIG. 14; for binding of induced antibodies to glycan, microarray of STn, DSGG, RM2 antigen, analogs and fragments: FIG. 15. The assay is classed as binding, mouse. Here is the method:
It was observed that these oligosaccharides all contain the same epitope trisaccharide 27 (NeuAcα2→6GlcNAcβ1→3Galβ1→R). To further evaluate the vaccine specificity, a glycan microarray created by STn, DSGG, RM2 antigen, RM2 antigen analogs, and RM2 antigen fragments was constructed (FIG. 15).
Microarrays were printed (BioDot; CartesianTechnologies) by robotic pin (SMP3; TeleChem In-ternational Inc.) deposition of 0.7 nL 100 μM amine-containing glycans in printing buffer (300 mM phosphate buffer, pH 8.5, containing 0.01% TritonX-100) from a […] microtiter plate onto N-Hydroxysuccinimide (NHS)-coated glass slides. Subsequently, a 96-glycan microarray (Fig. S2) was used to determine the polyclonal Ab spectrum of DT-RM series-induced antiserum. Printed slides were allowed to react in an atmosphere of 80% humidity for 1 h followed by desiccation overnight. These slides were stored at room temperature in a desiccator prior to use.
Mouse sera were diluted with 1% BSA/PBST buffer (PBST buffer: PBS and 0.05% Tween-20, pH 7.4). The glycan microarray was blocked with 50 mM ethanolamine for 1 h at 0° C. and washed three times with PBST buffer before use. The serum dilutions were then introduced to the glycan microarray and incubated at 0° C. for 1 h. Next, Cy3-conjugated goat anti-mouse IgG (H+L), IgG1, IgG2a, IgG2b, IgG2c, IgG3, or anti-mouse IgM was added to the microarray slide and then sealed for 1 h incubation at 0° C. in the dark. Finally, the slides were washed three times with PBST, PBST washing buffer, and ddH2O in sequence. The slides were spin-dried for 5 minutes before scanned at 635 nm with a microarray fluorescence chip reader (GenePix 4300A; Molecular Devices Corporation). Scanned images were analyzed with GenePix Pro-6.0 analysis software (Axon Instruments, Union City, Calif., USA).

Where [3] appears, read: antibody RM2, glycan printed on microarray, read-out: KD, surf (nM) ± SD.

SMILES strings stand for the structures. Like-named read-outs stand apart in the source and are kept apart here.

Turning to `CC(=O)N[C@@H]1[C@@H]([C@H](O)[C@H](O)CO)O[C@](O[C@@H]2[C@@H](O)[C@H](O[C@H]3[C@H](O)[C@@H](CO[C@]4(C(=O)O)C[C@H](O)[C@@H](NC(C)=O)[C@H]([C@H](O)[C@H](O)CO)O4)O[C@@H](O[C@H]4[C@@H](O)[C@@H](CO)O[C@@H](OCCCCCN)[C@@H]4O)[C@@H]3NC(C)=O)O[C@H](CO)[C@@H]2O[C@@H]2O[C@H](CO)[C@H](O)[C@H](O)[C@H]2NC(C)=O)(C(=O)O)C[C@H]1O` [Compound 1], the “binding specificity of the antibody to printed oligosaccharides” value in assay [1] was “recognize hexasaccharide 1 specifically”. Besides, the Fmax was 45,483 with monoclonal RM2 antibody (RM2 printing concentration 6.25 μM); 45,028 with monoclonal RM2 antibody (RM2 printing concentration 12.5 μM); 47,714 in the assay with monoclonal RM2 antibody (RM2 printing concentration 25 μM); 53,982 in the assay with monoclonal RM2 antibody (RM2 printing concentration 50 μM); 55,756 in the assay with monoclonal RM2 antibody (RM2 printing concentration 100 μM). Further, the Kd at monoclonal RM2 antibody (RM2 printing concentration 6.25 μM, read-out: KD, surf) worked out at 4.72 nM; at monoclonal RM2 antibody (RM2 printing concentration 12.5 μM, read-out: KD, surf), 3.14 nM; at monoclonal RM2 antibody (RM2 printing concentration 25 μM, read-out: KD, surf), 4.28 nM; at monoclonal RM2 antibody (RM2 printing concentration 50 μM, read-out: KD, surf) it was 5.48 nM; at monoclonal RM2 antibody (RM2 printing concentration 100 μM, read-out: KD, surf), 5.1 nM; on monoclonal RM2 antibody (setting [3]) it was 4.54 ± 0.903 nM. The “relative binding specificity of RM2 for the epitopes” value in the assay with monoclonal RM2 antibody (antibody RM2) is given as “RM2>pentasaccharide 29”. Further, the “binding of induced IgG antibodies to glycan” value in assay [2] is on record as “strong binding”. Moreover, in assay [2], the “binding of induced antibodies to glycan, microarray of STn, DSGG, RM2 antigen, analogs and fragments” value (from here on “binding … analogs and fragments”) is on record as “mainly bound”.

Take `CC(=O)N[C@H]1[C@H](O[C@H]2[C@@H](O)[C@@H](CO)O[C@@H](OCCCCCN)[C@@H]2O)O[C@H](CO[C@]2(C(=O)O)C[C@H](O)[C@@H](NC(C)=O)[C@H]([C@H](O)[C@H](O)CO)O2)[C@@H](O)[C@@H]1O` [Compound 27, (2R,4S,5R,6R)-5-acetamido-2-(((2R,3S,4R,5R,6S)-5-acetamido-6-((2R,3R,4S,5S,6R)-2-(5-aminopentyloxy)-3,5-dihydroxy-6-(hydroxymethyl)tetrahydro-2H-pyran-4-yloxy)-3,4-dihydroxytetrahydro-2H-pyran-2-yl)methoxy)-4-hydroxy-6-((1R,2R)-1,2,3-trihydroxypropyl)tetrahydro-2H-pyran-2-carboxylic acid]: in assay [2], the “binding of induced IgG antibodies to glycan” value is reported as “weaker binding”; the “binding … analogs and fragments” value is reported as “mainly bound”.

Regarding `CC(=O)N[C@H]1[C@H](O[C@H]2[C@@H](O)[C@@H](CO)O[C@@H](OCCCCCN)[C@@H]2O)O[C@H](CO[C@]2(C(=O)O)C[C@H](O)[C@@H](NC(C)=O)[C@H]([C@H](O)[C@H](O)CO)O2)[C@@H](O)[C@@H]1O[C@@H]1O[C@H](CO)[C@H](O)[C@H](O)[C@H]1O` [Compound 28, (2R,4S,5R,6R)-5-acetamido-2-(((2R,3S,4R,5R,6S)-5-acetamido-6-((2R,3R,4S,5S,6R)-2-(5-aminopentyloxy)-3,5-dihydroxy-6-(hydroxymethyl)tetrahydro-2H-pyran-4-yloxy)-3-hydroxy-4-((2R,3R,4S,5R,6R)-3,4,5-trihydroxy-6-(hydroxymethyl)tetrahydro-2H-pyran-2-yloxy)tetrahydro-2H-pyran-2-yl)methoxy)-4-hydroxy-6-((1R,2R)-1,2,3-trihydroxypropyl)tetrahydro-2H-pyran-2-carboxylic acid], the “binding of induced IgG antibodies to glycan” value in assay [2] is listed as “weaker binding”.

In the case of `CC(=O)NC1[C@H](O[C@@H]2[C@H](O)[C@@H](O)[C@H](O[C@H]3[C@H](O)[C@@H](CO[C@]4(C(=O)O)C[C@H](O)[C@@H](NC(C)=O)[C@H]([C@H](O)[C@H](O)CO)O4)O[C@@H](O[C@H]4[C@@H](O)[C@@H](CO)O[C@@H](OCCCCCN)[C@@H]4O)[C@@H]3NC(C)=O)O[C@@H]2CO)O[C@H](CO)[C@H](O)[C@@H]1O` (stereo partly shown) [Compound 29], the Fmax with monoclonal RM2 antibody (29 on microarray, printing concentration 6.25 μM) was 51,597; in the assay with monoclonal RM2 antibody (29 on microarray, printing concentration 12.5 μM), 50,900; in the assay with monoclonal RM2 antibody (29 on microarray, printing concentration 25 μM), 50,970; in the assay on monoclonal RM2 antibody (29 on microarray, printing concentration 50 μM), 59,045; with monoclonal RM2 antibody (29 on microarray, printing concentration 100 μM), 62,859. Moreover, the Kd at monoclonal RM2 antibody (29 on microarray, printing concentration 6.25 μM, read-out: KD, surf) worked out at 5.13 nM; on monoclonal RM2 antibody (29 on microarray, printing concentration 12.5 μM, read-out: KD, surf), 4.05 nM; at monoclonal RM2 antibody (29 on microarray, printing concentration 25 μM, read-out: KD, surf), 4.5 nM; on monoclonal RM2 antibody (29 on microarray, printing concentration 50 μM, read-out: KD, surf), 6.44 nM; at monoclonal RM2 antibody (29 on microarray, printing concentration 100 μM, read-out: KD, surf), 6.96 nM; on monoclonal RM2 antibody (setting [3]), 5.76 ± 1.14 nM. Further, in assay [2], the “binding of induced IgG antibodies to glycan” value is “weaker binding”.

On to `CC(=O)NC1C(O[C@@H]2OC(CO)[C@H](O)C(O[C@@]3(C(=O)O)CC(O)[C@H](NC(C)=O)C([C@H](O)[C@H](O)CO)O3)C2O)[C@H](O)C(CO[C@]2(C(=O)O)CC(O)[C@@H](NC(C)=O)C([C@H](O)[C@H](O)CO)O2)O[C@H]1OC1C(O)[C@H](OCCCCCN)OC(CO)[C@@H]1O` (stereo partly shown) [Compound 30], for which the “binding of induced IgG antibodies to glycan” value in assay [2] is “weaker binding”.

For `CC(=O)N[C@H]1[C@H](OCCCCCN)O[C@H](CO[C@]2(C(=O)O)C[C@H](O)[C@@H](NC(C)=O)[C@H]([C@H](O)[C@H](O)CO)O2)[C@@H](O)[C@@H]1O` [Compound 33, (2R,4S,5R,6R)-5-acetamido-2-(((2R,3S,4R,5R,6R)-5-acetamido-6-(5-aminopentyloxy)-3,4-dihydroxytetrahydro-2H-pyran-2-yl)methoxy)-4-hydroxy-6-((1R,2R)-1,2,3-trihydroxypropyl)tetrahydro-2H-pyran-2-carboxylic acid], the “binding … analogs and fragments” value in assay [2] is reported as “a lesser extent”.

Take `CC(=O)NC1C(OC2C(O)C(OCCCCCN)OC(CO)[C@H]2O)OC(CO[C@]2(C(=O)O)CC(O)[C@@H](NC(C)=O)C([C@H](O)[C@H](O)CO)O2)[C@@H](O)C1O` (stereo partly shown) [Compound 34]: the “binding … analogs and fragments” value in assay [2] is on record as “a lesser extent”.

`CC(=O)N[C@H]1[C@H]([C@H](O)[C@H](O)CO)O[C@@](OC[C@H]2OC(O)[C@H](O)[C@@H](O)[C@H]2O)(C(=O)O)C[C@@H]1O` (stereo partly shown) [NeuAcα2→6Gal, reference compound]: the “binding … analogs and fragments” value in assay [2] is “no detectable signal of binding”.

What is called Kd is the equilibrium constant for the complex coming apart.
